The conditions of series [1]: cited from earlier work.
A short description of series [2]: solubility in solvents (ethanol, methanol, water, n-hexane). In kind it is physicochemical. Conditions: salt of the invention.
Series [3] relates to cell lines of ovarian carcinoma. Conditions: published results; cited from earlier work.
Series [4] concerns cell lines of glioblastoma multiforme. The conditions noted are these: published results; cited from earlier work.
The mark [5] stands for this setting: literature value (J Pharm Sci 94(5), 2005).

In brackets after ≈: the same amount, converted by molar mass. Where two headings read alike, the source gives them in different places.

For the compound `CCC[S+]([O-])c1ccc2[nH]c(NC(=O)OC)nc2c1` (centres unmarked) [ABZ-SO, Albendazole sulphoxide], the solubility in ethanol in series [1] (setting [5]) is 1.36 mg/mL (≈ 4830 µM); in series [1] (non-salified sulphoxide, stated as known) it was “circa 1 mg mL^−1”. Moreover, the solubility in methanol result in series [1] (methanol, in words) is “slightly soluble”. Besides, in series [1] (n-hexane, in words), the solubility in n-hexane result is recorded as “practically insoluble”. In addition, the solubility in water result in series [1] (in words) is “practically insoluble”; in series [1] (in words, listed as RBZ), “poorly soluble”; in series [1] (setting [5]), 0.062 mg/mL (≈ 220 µM).
For `CCC[S+]([O-])c1ccc2[n-]c(NC(=O)OC)nc2c1.[Na+]` (centres unmarked) [ABZ-SO—Na], the solubility in ethanol result in series [2] (ethanol) is recorded as “about 30 mg mL^−1”. The solubility in methanol result in series [2] (methanol) is “about 30 mg mL^−1”.
In the case of `COC(=O)Nc1nc2ccc(C(=O)c3ccccc3)cc2[nH]1` [MBZ, mebendazole], the cytotoxicity entry in series [3] and in series [4] was “demonstrated cytotoxicity” in each case.

These data come from patent US20190016686A1, “SALTS OF COMPOUNDS HAVING A BENZIMIDAZOLIC STRUCTURE, USES AND PROCESS FOR THE PREPARATION THEREOF” (ISTITUTO SUPERIORE DI SANITÀ, priority 2015, published 2019).
